Values quoted from earlier work as cited in publication PMC12559310, “Tumor-targeted top1 inhibitor delivery with optimized parp inhibition in advanced solid tumors: a phase i trial of gapped scheduling” (Nature Communications, 2025).
Read-outs that look alike come from different tables or passages of the source.

What was measured:
[1] = tested on: patients with solid tumors; conditions: cited from earlier work
[2] = tested on: SCLC cell lines; design: method as in protocol [5]; conditions: pre-clinical models of SCLC; ref protocol [5]; cited from earlier work

Compound: CC[C@@]1(O)C(=O)OCc2c1cc1n(c2=O)Cc2cc3c(CN(C)C)c(O)ccc3nc2-1 [topotecan]
- Topo1i % of MTD ([1]; Topotecan 0.6 mg/m2/d1-5 with Veliparib 10 bid d1-5, % of single-agent MTD, ref Kummar, Can Res, 2011): 40%
- Topo1i % of MTD ([1]; Topotecan 1 mg/m2/d1-3 with Olaparib 100 mg bid d1-21, ref Samol, Inv New Drugs, 2012): 40%
- Topo1i % of MTD ([1]; Topotecan 3 mg/m2 d2,9,16 with Veliparib 300 mg bid, ref Hendrickson, Clin Can Res, 2017): 75%

Compound: CCc1c2c(nc3ccc(OC(=O)N4CCC(N5CCCCC5)CC4)cc13)-c1cc3c(c(=O)n1C2)COC(=O)[C@]3(O)CC [Irinotecan]
- Topo1i % of MTD ([1]; Irinotecan 100 mg/m2 with Veliparib 40 bid d1-14, ref LoRusso, Clin Can Res, 2016): 80%
- Topo1i % of MTD ([1]; Irinotecan 125 mg/m2 q2w with Olaparib 50 mg bid d1-5, ref Chen, Inv New Drugs, 2016): 69%
- Topo1i % of MTD ([1]; Irinotecan 200 mg/m2 q3w with Olaparib 50 mg qd d1-21, ref Chen, Inv New Drugs, 2016): 57%

Compound: C[C@]1(c2nc3c(C(N)=O)cccc3[nH]2)CCCN1 [veliparib]
- PARPi % of MTD ([1]; Veliparib 50 mg BID with Liposomal Irinotecan 70 mg/m2 q2w, ref LaRose, Oncologist, 2023): 13%
- PARPi % of MTD ([1]; Veliparib 300 mg bid with Topotecan 3 mg/m2 d2,9,16, ref Hendrickson, Clin Can Res, 2017): 75%
- PARPi % of MTD ([1]; Veliparib 10 bid d1-5 with Topotecan 0.6 mg/m2/d1-5, % of single-agent MTD, ref Kummar, Can Res, 2011): 3%
- PARPi % of MTD ([1]; Veliparib 10 bid d1-5 with Topotecan 0.6 mg/m2/d1-5, % of single-agent MTD, ref Kummar, Can Res, 2011, listed as Veliparib): ≈ 3%
- PARPi % of MTD ([1]; Veliparib 40 bid d1-14 with Irinotecan 100 mg/m2, ref LoRusso, Clin Can Res, 2016): 10%

Compound: CNCc1ccc(-c2[nH]c3cc(F)cc4c3c2CCNC4=O)cc1 [rucaparib]
- single agent activity [2]: striking single agent activity in a majority of SCLC cell lines tested
